What follows are molecules tested on SETVI (assay: Pre-emergence herbicidal action). Details: Table 2, pre-emergence (PE), 320 g/ha, scored after 3 weeks.
Type: in vivo
Summary of the method: (§1)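 Visual herbicidal activity in percent (100% = dead, 0% = as untreated control), scored 3 weeks after treatment. Seeds were sown in sandy loam and covered, then the soil surface was sprayed pre-emergence with wettable-powder or emulsion-concentrate formulations in 600 to 800 l/ha water containing 0.2% wetting agent.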

SMILES	Herbicidal action against SETVI
Nc1cc(-c2ccc3ccsc3c2)nc(C(=O)OCc2ccc(F)cc2)c1Cl [Example I-07, 4-fluorobenzyl 4-amino-6-(1-benzothiophen-6-yl)-3-chloropyridine-2-carboxylate]	90%
Nc1cc(-c2ccc3sccc3c2)nc(C(=O)OCc2cccc(F)c2)c1Cl [Example I-09]	90%
Nc1cc(-c2ccc3ccsc3c2)nc(C(=O)OCc2cccc(F)c2)c1Cl [Example I-10]	90%

The molecules below were run on ECHCG (assay: Pre-emergence herbicidal action). Details: Table 2, pre-emergence (PE), 320 g/ha, scored after 3 weeks.
Type: in vivo
Summary of the method: as §1

SMILES	Herbicidal action against ECHCG
Nc1cc(-c2ccc3ccsc3c2)nc(C(=O)OCc2ccc(F)cc2)c1Cl [Example I-07, 4-fluorobenzyl 4-amino-6-(1-benzothiophen-6-yl)-3-chloropyridine-2-carboxylate]	100%
Nc1cc(-c2ccc3sccc3c2)nc(C(=O)OCc2cccc(F)c2)c1Cl [Example I-09]	100%
Nc1cc(-c2ccc3ccsc3c2)nc(C(=O)OCc2cccc(F)c2)c1Cl [Example I-10]	100%

Each molecule was assayed on POLCO (assay: Pre-emergence herbicidal action). Details: Table 2, pre-emergence (PE), 320 g/ha, scored after 3 weeks.
Type: in vivo
Summary of the method: as §1

SMILES	Herbicidal action against POLCO
Nc1cc(-c2ccc3ccsc3c2)nc(C(=O)OCc2ccc(F)cc2)c1Cl [Example I-07, 4-fluorobenzyl 4-amino-6-(1-benzothiophen-6-yl)-3-chloropyridine-2-carboxylate]	100%
Nc1cc(-c2ccc3sccc3c2)nc(C(=O)OCc2cccc(F)c2)c1Cl [Example I-09]	90%
Nc1cc(-c2ccc3ccsc3c2)nc(C(=O)OCc2cccc(F)c2)c1Cl [Example I-10]	0%

Each molecule was assayed on VIOTR (assay: Pre-emergence herbicidal action). Details: Table 2, pre-emergence (PE), 320 g/ha, scored after 3 weeks.
Type: in vivo
Summary of the method: as §1

SMILES	Herbicidal action against VIOTR
Nc1cc(-c2ccc3ccsc3c2)nc(C(=O)OCc2ccc(F)cc2)c1Cl [Example I-07, 4-fluorobenzyl 4-amino-6-(1-benzothiophen-6-yl)-3-chloropyridine-2-carboxylate]	50%
Nc1cc(-c2ccc3sccc3c2)nc(C(=O)OCc2cccc(F)c2)c1Cl [Example I-09]	60%
Nc1cc(-c2ccc3ccsc3c2)nc(C(=O)OCc2cccc(F)c2)c1Cl [Example I-10]	40%

What follows are molecules tested on ABUTH (assay: Pre-emergence herbicidal action). Details: Table 2, pre-emergence (PE), 320 g/ha, scored after 3 weeks.
Type: in vivo
Summary of the method: as §1

SMILES	Herbicidal action against ABUTH
Nc1cc(-c2ccc3ccsc3c2)nc(C(=O)OCc2ccc(F)cc2)c1Cl [Example I-07, 4-fluorobenzyl 4-amino-6-(1-benzothiophen-6-yl)-3-chloropyridine-2-carboxylate]	80%
Nc1cc(-c2ccc3sccc3c2)nc(C(=O)OCc2cccc(F)c2)c1Cl [Example I-09]	70%
Nc1cc(-c2ccc3ccsc3c2)nc(C(=O)OCc2cccc(F)c2)c1Cl [Example I-10]	30%

These molecules were tested on AMARE (assay: Pre-emergence herbicidal action). Details: Table 2, pre-emergence (PE), 320 g/ha, scored after 3 weeks.
Type: in vivo
Summary of the method: as §1

SMILES	Herbicidal action against AMARE
Nc1cc(-c2ccc3ccsc3c2)nc(C(=O)OCc2ccc(F)cc2)c1Cl [Example I-07, 4-fluorobenzyl 4-amino-6-(1-benzothiophen-6-yl)-3-chloropyridine-2-carboxylate]	100%
Nc1cc(-c2ccc3sccc3c2)nc(C(=O)OCc2cccc(F)c2)c1Cl [Example I-09]	90%
Nc1cc(-c2ccc3ccsc3c2)nc(C(=O)OCc2cccc(F)c2)c1Cl [Example I-10]	100%

The molecules below were run on ALOMY (assay: Pre-emergence herbicidal action). Details: Table 2, pre-emergence (PE), 320 g/ha, scored after 3 weeks.
Type: in vivo
Summary of the method: as §1

SMILES	Herbicidal action against ALOMY
Nc1cc(-c2ccc3ccsc3c2)nc(C(=O)OCc2ccc(F)cc2)c1Cl [Example I-07, 4-fluorobenzyl 4-amino-6-(1-benzothiophen-6-yl)-3-chloropyridine-2-carboxylate]	90%
Nc1cc(-c2ccc3sccc3c2)nc(C(=O)OCc2cccc(F)c2)c1Cl [Example I-09]	20%
Nc1cc(-c2ccc3ccsc3c2)nc(C(=O)OCc2cccc(F)c2)c1Cl [Example I-10]	70%

What follows are molecules tested on SETVI (assay: Post-emergence herbicidal action). Details: Table 5, post-emergence (PO), 320 g/ha, assessed after about 3 weeks.
Type: in vivo
Summary of the method: (§2)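 After sowing in sandy loam, plants grew 2 to 3 weeks in the greenhouse, then at the one-leaf stage received the formulated compound as a foliar aqueous spray (600 to 800 l/ha, 0.2% wetting agent). Effect is given as visual percent damage relative to untreated controls.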

SMILES	Herbicidal action against SETVI
Nc1cc(-c2ccc3ccsc3c2)nc(C(=O)OCc2ccc(F)cc2)c1Cl [Example I-07, 4-fluorobenzyl 4-amino-6-(1-benzothiophen-6-yl)-3-chloropyridine-2-carboxylate]	100%
Nc1cc(-c2ccc3sccc3c2)nc(C(=O)OCc2cccc(F)c2)c1Cl [Example I-09]	90%
Nc1cc(-c2ccc3ccsc3c2)nc(C(=O)OCc2cccc(F)c2)c1Cl [Example I-10]	90%

The molecules below were run on ECHCG (assay: Post-emergence herbicidal action). Details: Table 5, post-emergence (PO), 320 g/ha, assessed after about 3 weeks.
Type: in vivo
Summary of the method: as §2

SMILES	Herbicidal action against ECHCG
Nc1cc(-c2ccc3ccsc3c2)nc(C(=O)OCc2ccc(F)cc2)c1Cl [Example I-07, 4-fluorobenzyl 4-amino-6-(1-benzothiophen-6-yl)-3-chloropyridine-2-carboxylate]	90%
Nc1cc(-c2ccc3sccc3c2)nc(C(=O)OCc2cccc(F)c2)c1Cl [Example I-09]	100%
Nc1cc(-c2ccc3ccsc3c2)nc(C(=O)OCc2cccc(F)c2)c1Cl [Example I-10]	90%

Each molecule was assayed on POLCO (assay: Post-emergence herbicidal action). Details: Table 5, post-emergence (PO), 320 g/ha, assessed after about 3 weeks.
Type: in vivo
Summary of the method: as §2

SMILES	Herbicidal action against POLCO
Nc1cc(-c2ccc3ccsc3c2)nc(C(=O)OCc2ccc(F)cc2)c1Cl [Example I-07, 4-fluorobenzyl 4-amino-6-(1-benzothiophen-6-yl)-3-chloropyridine-2-carboxylate]	80%
Nc1cc(-c2ccc3sccc3c2)nc(C(=O)OCc2cccc(F)c2)c1Cl [Example I-09]	70%
Nc1cc(-c2ccc3ccsc3c2)nc(C(=O)OCc2cccc(F)c2)c1Cl [Example I-10]	100%

Each molecule was assayed on VIOTR (assay: Post-emergence herbicidal action). Details: Table 5, post-emergence (PO), 320 g/ha, assessed after about 3 weeks.
Type: in vivo
Summary of the method: as §2

SMILES	Herbicidal action against VIOTR
Nc1cc(-c2ccc3ccsc3c2)nc(C(=O)OCc2ccc(F)cc2)c1Cl [Example I-07, 4-fluorobenzyl 4-amino-6-(1-benzothiophen-6-yl)-3-chloropyridine-2-carboxylate]	60%
Nc1cc(-c2ccc3sccc3c2)nc(C(=O)OCc2cccc(F)c2)c1Cl [Example I-09]	90%
Nc1cc(-c2ccc3ccsc3c2)nc(C(=O)OCc2cccc(F)c2)c1Cl [Example I-10]	70%

Each molecule was assayed on PHBPU (assay: Post-emergence herbicidal action). Details: Table 5, post-emergence (PO), 320 g/ha, assessed after about 3 weeks.
Type: in vivo
Summary of the method: as §2

SMILES	Herbicidal action against PHBPU
Nc1cc(-c2ccc3ccsc3c2)nc(C(=O)OCc2ccc(F)cc2)c1Cl [Example I-07, 4-fluorobenzyl 4-amino-6-(1-benzothiophen-6-yl)-3-chloropyridine-2-carboxylate]	80%
Nc1cc(-c2ccc3sccc3c2)nc(C(=O)OCc2cccc(F)c2)c1Cl [Example I-09]	80%
Nc1cc(-c2ccc3ccsc3c2)nc(C(=O)OCc2cccc(F)c2)c1Cl [Example I-10]	80%

These molecules were tested on ABUTH (assay: Post-emergence herbicidal action). Details: Table 5, post-emergence (PO), 320 g/ha, assessed after about 3 weeks.
Type: in vivo
Summary of the method: as §2

SMILES	Herbicidal action against ABUTH
Nc1cc(-c2ccc3ccsc3c2)nc(C(=O)OCc2ccc(F)cc2)c1Cl [Example I-07, 4-fluorobenzyl 4-amino-6-(1-benzothiophen-6-yl)-3-chloropyridine-2-carboxylate]	100%
Nc1cc(-c2ccc3sccc3c2)nc(C(=O)OCc2cccc(F)c2)c1Cl [Example I-09]	100%
Nc1cc(-c2ccc3ccsc3c2)nc(C(=O)OCc2cccc(F)c2)c1Cl [Example I-10]	100%

What follows are molecules tested on AMARE (assay: Post-emergence herbicidal action). Details: Table 5, post-emergence (PO), 320 g/ha, assessed after about 3 weeks.
Type: in vivo
Summary of the method: as §2

SMILES	Herbicidal action against AMARE
Nc1cc(-c2ccc3ccsc3c2)nc(C(=O)OCc2ccc(F)cc2)c1Cl [Example I-07, 4-fluorobenzyl 4-amino-6-(1-benzothiophen-6-yl)-3-chloropyridine-2-carboxylate]	100%
Nc1cc(-c2ccc3sccc3c2)nc(C(=O)OCc2cccc(F)c2)c1Cl [Example I-09]	100%
Nc1cc(-c2ccc3ccsc3c2)nc(C(=O)OCc2cccc(F)c2)c1Cl [Example I-10]	100%

What follows are molecules tested on STEME (assay: Post-emergence herbicidal action). Details: Table 5, post-emergence (PO), 320 g/ha, assessed after about 3 weeks.
Type: in vivo
Summary of the method: as §2

SMILES	Herbicidal action against STEME
Nc1cc(-c2ccc3ccsc3c2)nc(C(=O)OCc2ccc(F)cc2)c1Cl [Example I-07, 4-fluorobenzyl 4-amino-6-(1-benzothiophen-6-yl)-3-chloropyridine-2-carboxylate]	0%
Nc1cc(-c2ccc3sccc3c2)nc(C(=O)OCc2cccc(F)c2)c1Cl [Example I-09]	100%
Nc1cc(-c2ccc3ccsc3c2)nc(C(=O)OCc2cccc(F)c2)c1Cl [Example I-10]	100%
